Assays:
Format in all cases: in vivo, human
[1] = Pharmacokinetics, DMD Phase 2 interim analysis; settings: for Cmin: DMD patients, 4, 4, 8 mg/kg
Description: 3-[5-(2-Fluoro-phenyl)-[1,2,4]oxadiazol-3-yl]-benzoic acid is provided in a formulation described herein. Treatment is administered over 28 days for each treatment cohort. An initial cohort of patients are treated daily for 28 days with 3-[5-(2-fluoro-phenyl)-[1,2,4]oxadiazol-3-yl]-benzoic acid at a given dose level (e.g., 4-, 4-, and 8-mg/kg) TID. If the initial patients tolerate the drug, then a second cohort of patients receives 3-[5-(2-fluoro-phenyl)-[1,2,4]oxadiazol-3-yl]-benzoic acid at a higher dose level (e.g., 10-, 10-, and 20-mg/kg) TID. Thus, each patient receives a total of 84 doses of 3-[5-(2-fluoro-phenyl)-[1,2,4]oxadiazol-3-yl]-benzoic acid. After the end of 28 days of treatment, each patient is followed for an additional 28 days without treatment.
At each dose level, it is recommended that 3-[5-(2-fluoro-phenyl)-[1,2,4]oxadiazol-3-yl]-benzoic acid be taken TID at 6-, 6-, and 12-hour (±˜30 minutes) intervals. Ideally each dose is taken within ˜30 minutes after a meal (e.g., ˜7:00 AM after breakfast, ˜1:00 PM after lunch, and ˜7:00 PM after dinner). While it is realized that variations in dosing schedule may occur in the outpatient setting, it is recommended that the prescribed regimen (including dosing intervals and the relationship of dosing to meals) be followed closely on the days of PK sample collection. Clinical endpoints are evaluated using the procedures set forth above.
Six patients were administered 3-[5-(2-fluoro-phenyl)-[1,2,4]oxadiazol-3-yl]-benzoic acid TID in a regimen consisting of 4 mg/kg with breakfast, 4 mg/kg with lunch, and 8 mg/kg with supper, for a total daily dose of 16 mg/kg. All patients were ambulatory, but had characteristic signs and symptoms of DMD, including some degree of muscle dysfunction and elevated serum CK concentrations. […] These adverse events included diarrhea in 1 patient; abdominal pain in 1 patient; and flatulence in 2 patients. […] Treatment compliance was good, with patients taking >95% of the intended total drug treatment for 28 days at the lower dose level. […]

[2] = Patient-reported changes in cystic fibrosis symptoms, CF Phase 2 interim analysis; settings: of 15 CF patients in interim analysis
Source text: In addition, although changes in patient's symptoms were not formally measured through the use of a quality-of-life questionnaire, trial investigators were requested to ask about changes in patients' cystic fibrosis symptoms. In the 15 patients included in the interim analysis, 6 reported general improvements in well being, 6 reported decrease in cough and 10 reported decreased mucus thickness and easier clearing of mucus.

[3] = test system: serum CK; assay: Serum CK levels, DMD Phase 2; settings: boys with nonsense-mutation-mediated DMD, 28 days
Description: Serum CK activity is assessed using a commercially available NADH-linked kinetic assay (Diagnostic Chemicals Ltd., Oxford, Conn.). Serum CK levels are measured prior to treatment, on day 1 (prior to first dose), day 7, day 14, day 21, and day 27 during the treatment period, and on day 42 and day 56 after treatment. Serum CK is increased in Duchenne muscular dystrophy and therefore is a readily measurable diagnostic marker for the disease and may serve as a potential biomarker for the pharmacological activity of the drug (Mendell et al., 1989, New Eng. J. Med. 320(24):1592-1597).
3-[5-(2-fluoro-phenyl)-[1,2,4]oxadiazol-3-yl]-benzoic acid was administered orally for 28 days at dose levels of 4, 4, 8 mg/kg (low dose); 10, 10, 20 mg/kg (mid dose); and 20, 20, 40 mg/kg (high dose) after breakfast, lunch, and dinner, respectively. 26 boys (ages: 5-13 years; stop codons: 15 UGA, 6 UAG, 5 UAA; baseline serum CK: 8,645-49,500 IU; steroid use: 19/26) completed 3-[5-(2-fluoro-phenyl)-[1,2,4]oxadiazol-3-yl]-benzoic acid at the low (n=6) or mid (n=20) dose levels. […] Compliance was >98% for both dose levels. Day 1 and Day 28 PK indicate stable plasma exposures over time; however, exposures were lower than in 3-[5-(2-fluoro-phenyl)-[1,2,4]oxadiazol-3-yl]-benzoic acid-treated healthy adult volunteers and cystic fibrosis patients. […]

[4] = Pulmonary function tests (FEV1, FVC), CF Phase 2 study
Description: Pulmonary function tests, including FEV1, FVC, and MEF25-75, are measured using standard spirometry procedures. Assessments of pulmonary function (including MEF25-75, FVC, and, particularly, FEV1) have been acknowledged as definitive clinical endpoints in patients with CF (Food and Drug Administration, 62nd Anti-Infective Drugs Advisory Committee. Discussion of NDA for tobramycin solution for inhalation (Tobi®) for the management of cystic fibrosis patients. November, 1997; Tiddens, 2002, Pediatr. Pulmonol. 34(3): 228-31). […] Pulmonary function testing is simple to administer (even in patients as young as 7 years of age), and uses standardized equipment and techniques that are widely available. Interpretation is performed using well-established normative equations that account for patient age, height, and gender.
Clinical endpoints were evaluated using the procedures set forth above. TEPD measurements were made prior to treatment and on days 14 and 28 of Cycle 1 and Cycle 2. Nasal mucosal curettage was collected from each nostril of each patient prior to treatment and on days 14 and 28 of Cycle 1 and Cycle 2. Pulmonary tests, including FEV1, FVC and MEF25-75, were measured prior to treatment, on day −1 of Cycle 2, on day 13 or 14 of Cycle 1 and day 13 or 14 of Cycle 2 in the study being conducted in Israel and the same parameters were measured prior to treatment and on day 13 or 14 of Cycle 2 in the study being conducted in the United States.
Statistically significant results and positive trends for secondary endpoints were also observed. In particular, although the trials were not been powered to detect statistical significant changes in secondary endpoints, statistically significant improvements from study entry to the end of the higher-dose treatment cycle in the patients' mean FEV1, FVC and weight were observed.

[5] = study entry to end of higher dose treatment, percentage of normal

O=C(O)c1cccc(-c2noc(-c3ccccc3F)n2)c1 [3-[5-(2-fluoro-phenyl)-[1,2,4]oxadiazol-3-yl]-benzoic acid]
Drug accumulation / induction of metabolism ([1]; 27-day treatment interval between sampling periods): neither evidence of drug accumulation nor evidence of decreased drug levels due to the induction of metabolism
Cmin ([1]; Day 1, N = 6, mean): 500 ng/mL
Cmin ([1]; Day 27, N = 6, mean): 600 ng/mL
Patients reporting decrease in cough [2]: 6
Patients reporting decreased mucus thickness and easier clearing of mucus [2]: 10
Patients reporting general improvements in well being [2]: 6
Serum CK levels during administration [3]: decreased significantly
Mean FEV1, End of Higher Dose Treatment ([4]; percentage of normal for gender, age and height, study entry 65.8%, one patient not included): 69.1%
Mean FVC, End of Higher Dose Treatment ([4]; percentage of normal for gender, age and height, study entry 80.2%, one patient not included): 85.1%
Mean FEV1, Change [4, 5]: 3.3%
Mean FVC, Change [4, 5]: 4.9%
